Key:
Assay in all cases: Greenhouse herbicidal activity, post-emergence treatment
Assay type in all cases: in vivo
[1] = tested on: Chenopodium album (CHEAL); settings: for herbicidal activity against CHEAL: scale 0 to 100; for pest or weed control at 500 g/ha: application rate 0.5 kg/ha
Source text: (§1) The seeds of the test plants were sown separately for each species. For the post-emergence treatment, the test plants were first grown to a height of 3 to 15 cm, depending on the plant habit, and only then treated with the active ingredients which had been suspended or emulsified in water. For this purpose, the test plants were either sown directly and grown in the same containers, or they were first grown separately as seedlings and transplanted into the test containers a few days prior to treatment. Depending on the species, the plants were kept at 10-25° C. or 20-35° C. The test period extended over 2 to 4 weeks. During this time, the plants were tended, and their response to the individual treatments was evaluated. Evaluation was carried out using a scale from 0 to 100. 100 means no emergence of the plants, or complete destruction of at least the aerial moieties, and 0 means no damage, or normal course of growth. A good herbicidal activity is given at values of at least 70 and a very good herbicidal activity is given at values of at least 85. The plants used in the greenhouse experiments belonged to the following species: [table]

[2] = tested on: Amaranthus retroflexus (AMARE); settings: scale 0 to 100
Source text: as §1

Galium aparine (GALAP) = settings: scale 0 to 100
Source text: as §1

[3] = tested on: Alopecurus myosuroides (ALOMY); settings: scale 0 to 100
Source text: as §1

[4] = tested on: Echinochloa crus-galli (ECHCG); settings: scale 0 to 100
Source text: as §1

Setaria faberi (SETFA) = settings: application rate 0.5 kg/ha, scale 0 to 100
Source text: as §1

Stellaria media (STEME) = settings: scale 0 to 100
Source text: as §1

[5] = tested on: Abutilon theophrasti (ABUTH); settings: application rate 0.25 kg/ha, scale 0 to 100
Source text: as §1

[6] = Chenopodium album, application rate 0.25 kg/ha, scale 0 to 100, read-out: herbicidal activity against CHEAL
[7] = Chenopodium album, scale 0 to 100, read-out: herbicidal activity against CHEAL

## CCN1c2cccnc2C(O)=C(c2ccc(F)cc2F)S1(=O)=O [Compound I-63]
[1]; [6]
  pest or weed control at 250 g/ha: ≥ 85%

## CCOc1c(S(=O)(=O)CC)ccc(C2=C(O)c3ncccc3N(CC(C)C)S2(=O)=O)c1Cl [Compound I-29]
[2]; application rate 0.154 kg/ha
  herbicidal activity against AMARE: very good herbicidal activity (a very good herbicidal activity is given at values of at least 85)

## O=S1(=O)C(c2cc(Cl)ccc2Cl)=C(O)c2ncccc2N1CC(F)F [Compound I-7]
Galium aparine (GALAP); application rate 0.5 kg/ha
  herbicidal activity against GALAP: good herbicidal activity (A good herbicidal activity is given at values of at least 70)
[3]; application rate 0.5 kg/ha
  herbicidal activity against ALOMY: very good herbicidal activity (a very good herbicidal activity is given at values of at least 85)

## COc1c(S(C)(=O)=O)ccc(C2=C(O)c3ncccc3N(CC(C)C)S2(=O)=O)c1C [Compound I-33]
[1]; application rate 0.345 kg/ha
  herbicidal activity against CHEAL: very good herbicidal activity (a very good herbicidal activity is given at values of at least 85)
[4]; application rate 0.345 kg/ha
  herbicidal activity against ECHCG: very good herbicidal activity (a very good herbicidal activity is given at values of at least 85)

## CCN1c2cccnc2C(O)=C(c2ccc(Br)cc2Cl)S1(=O)=O [Compound I-81]
[1]; [6]
  pest or weed control at 250 g/ha: ≥ 85%

## CON=C1CCS(=O)(=O)c2c1ccc(C1=C(O)c3ncccc3N(CC(F)F)S1(=O)=O)c2C [Compound I-22]
Setaria faberi (SETFA)
  herbicidal activity against SETFA: good herbicidal activity (A good herbicidal activity is given at values of at least 70)

## Cc1c(C2=C(O)c3ncccc3N(CC(F)F)S2(=O)=O)ccc2c1C(=O)C(C)(C)CS2(=O)=O [Compound I-71]
[1]; application rate 0.25 kg/ha
  herbicidal activity against CHEAL: good herbicidal activity (A good herbicidal activity is given at values of at least 70)

## CCN1c2cccnc2C(O)=C(c2ccc(Cl)cc2Cl)S1(=O)=O [Compound I-40]
[1]; [7]
  pest or weed control at 500 g/ha: ≥ 85%

## CC1=NOC(c2c(S(C)(=O)=O)ccc(C3=C(O)c4ncccc4N(CC(F)F)S3(=O)=O)c2C)C1 (stereo not shown) [Compound I-8]
[2]; application rate 0.447 kg/ha
  herbicidal activity against AMARE: very good herbicidal activity (a very good herbicidal activity is given at values of at least 85)
[1]; application rate 0.447 kg/ha
  herbicidal activity against CHEAL: very good herbicidal activity (a very good herbicidal activity is given at values of at least 85)

## CCN1c2cccnc2C(O)=C(c2cccc(OC(F)(F)F)c2Cl)S1(=O)=O [Compound I-34]
Stellaria media (STEME); application rate 0.233 kg/ha
  herbicidal activity against STEME: very good herbicidal activity (a very good herbicidal activity is given at values of at least 85)
[1]; Chenopodium album, application rate 0.233 kg/ha, scale 0 to 100, read-out: herbicidal activity against CHEAL
  pest or weed control at 233 g/ha: ≥ 85%

## COC(CN1c2cccnc2C(O)=C(c2ccccc2C(F)(F)F)S1(=O)=O)OC [Compound I-82]
[3]; application rate 0.25 kg/ha
  herbicidal activity against ALOMY: very good herbicidal activity (a very good herbicidal activity is given at values of at least 85)

## O=S1(=O)C(c2ccccc2Cl)=C(O)c2ncccc2N1CC(F)F [Compound I-5]
[4]; application rate 0.5 kg/ha
  herbicidal activity against ECHCG: good herbicidal activity (A good herbicidal activity is given at values of at least 70)

## CS(=O)(=O)c1ccc(C2=C(O)c3ncccc3N(CC(F)F)S2(=O)=O)c(Cl)c1C1=NOCC1 [Compound I-66]
Stellaria media (STEME); application rate 0.075 kg/ha
  herbicidal activity against STEME: very good herbicidal activity (a very good herbicidal activity is given at values of at least 85)
[2]; application rate 0.075 kg/ha
  herbicidal activity against AMARE: very good herbicidal activity (a very good herbicidal activity is given at values of at least 85)
[1]; application rate 0.075 kg/ha
  herbicidal activity against CHEAL: very good herbicidal activity (a very good herbicidal activity is given at values of at least 85)

## CCN1c2cccnc2C(O)=C(c2ccc(Cl)c(C)c2Cl)S1(=O)=O [Compound I-59]
[1]; Chenopodium album, application rate 0.154 kg/ha, scale 0 to 100, read-out: herbicidal activity against CHEAL
  pest or weed control at 154 g/ha: ≥ 85%

## CN1c2cccnc2C(O)=C(c2ccccc2Cl)S1(=O)=O [Compound I-44]
[1]; Chenopodium album, application rate 0.1 kg/ha, scale 0 to 100, read-out: herbicidal activity against CHEAL
  pest or weed control at 100 g/ha: ≥ 85%
[4]; application rate 0.1 kg/ha
  herbicidal activity against ECHCG: very good herbicidal activity (a very good herbicidal activity is given at values of at least 85)

## CCCN1c2cccnc2C(O)=C(c2ccc(Cl)cc2Cl)S1(=O)=O [Compound I-41]
[1]; [7]
  pest or weed control at 500 g/ha: ≥ 85%

## CN1c2cccnc2C(O)=C(c2ccc(Cl)cc2Cl)S1(=O)=O [Compound I-39]
[1]; [7]
  pest or weed control at 500 g/ha: ≥ 85%

## CCCCN1c2cccnc2C(O)=C(c2ccc(S(C)(=O)=O)c(OC)c2C)S1(=O)=O [Compound I-32]
[1]; Chenopodium album, application rate 0.4 kg/ha, scale 0 to 100, read-out: herbicidal activity against CHEAL
  pest or weed control at 400 g/ha: ≥ 85%

## CC(C)N1c2cccnc2C(O)=C(c2ccccc2Cl)S1(=O)=O [Compound I-51]
[1]; [7]
  pest or weed control at 500 g/ha: ≥ 85%

## O=S1(=O)C(c2cc(Cl)cc(N3CCOCC3)c2C(F)(F)F)=C(O)c2ncccc2N1CC(F)F [Compound I-56, 3-[5-chloro-3-morpholino-2-(trifluoromethyl)phenyl]-1-(2,2-difluoroethyl)-2,2-dioxo-pyrido[3,2-c]thiazin-4-ol]
[2]; application rate 0.25 kg/ha
  herbicidal activity against AMARE: good herbicidal activity (A good herbicidal activity is given at values of at least 70)

## O=S1(=O)C(c2ccc(F)cc2F)=C(O)c2ncccc2N1CC(F)F [Compound I-62]
Galium aparine (GALAP); application rate 0.0625 kg/ha
  herbicidal activity against GALAP: good herbicidal activity (A good herbicidal activity is given at values of at least 70)
[1]; application rate 0.0625 kg/ha
  herbicidal activity against CHEAL: very good herbicidal activity (a very good herbicidal activity is given at values of at least 85)

## O=S1(=O)C(c2cc(F)ccc2C(F)(F)F)=C(O)c2ncccc2N1CC(F)F [Compound I-3]
[4]; application rate 0.5 kg/ha
  herbicidal activity against ECHCG: very good herbicidal activity (a very good herbicidal activity is given at values of at least 85)

## CCCCN1c2cccnc2C(O)=C(c2ccc(Cl)cc2Cl)S1(=O)=O [Compound I-42]
[1]; [7]
  pest or weed control at 500 g/ha: ≥ 85%

## Cc1c(C2=C(O)c3ncccc3N(CC(F)F)S2(=O)=O)ccc2c1S(=O)(=O)CCC2(C)C [Compound I-10]
[2]; application rate 0.041 kg/ha
  herbicidal activity against AMARE: very good herbicidal activity (a very good herbicidal activity is given at values of at least 85)
[1]; application rate 0.041 kg/ha
  herbicidal activity against CHEAL: very good herbicidal activity (a very good herbicidal activity is given at values of at least 85)

## CN1c2cccnc2C(O)=C(c2ccccc2C(F)(F)F)S1(=O)=O [Compound I-45]
[5]
  herbicidal activity against ABUTH: very good herbicidal activity (a very good herbicidal activity is given at values of at least 85)

Reference: patent US8440594B2, “Pyridothiazines having herbicidal action” (BASF SE, priority 2010, dated 2013)
